For experiment [1], the system named is monkey kidney epithelial cells of the BSC-1 line. The experiment in a line: Growth-promoting (mitogenic) activity: number of cells in BSC-1 cultures counted four days after addition. The following applies: for EC50: read-out: Growth-Stimulation K½; for stimulation of growth (increase in cell number compared to control at four days): agent alone at maximal mitogenic concentration (14-Ser 0.5 μg/ml; EGF, IGF-I 50 ng/ml; acidic FGF 100 pg/ml; basic FGF 1,000 pg/ml; vasopressin 75 pg/ml; K 10.4 mM; Na 180 mM). In kind it is cell-based, African green monkey.

The next experiment deals with BSC-1 cells. The experiment in a line: Time of contact with cells required to commit them to accelerated growth (washout, count at four days). In kind it is cell-based, African green monkey. As to the method: Confluent monolayers of BSC-1 cells are prepared as herein and exposed to the 14-Ser peptide (0.5 μg/ml) for different amounts of time (0 to 30 minutes). At the end of the defined exposure period, culture medium containing the mitogen was aspirated, the monolayer was rinsed to remove non-adherent peptide, and fresh medium was added. Four days later the number of cells in the culture was counted.
In these experiments a solution containing the peptide of interest was added to the cell monolayer; culture medium was then aspirated at a specified time thereafter. Then fresh medium without the peptide was added and the number of cells was counted four days later.

Experiment [2] concerns kidneys of rats given mercuric chloride. In words: BrdU labeling of DNA synthesis in kidneys of rats given mercuric chloride. As to conditions: 14-Ser 100 μg 24 hours before mercuric chloride; 1 hour BrdU labeling 24 hours after. The class given is in vivo, rat. As to the method:
To determine if the beneficial effects of 14-Ser peptide on survival and renal function were the result of the mitogenic action of the peptide, DNA synthesis was measured in the kidneys of rats given mercuric chloride. 5-Bromo-2′-deoxyuridine (BrdU), a nonradioactive analog of thymidine that is incorporated into DNA was used to label nuclei. A monoclonal antibody to BrdU and diamidobenzidene staining were used to detect nuclei undergoing DNA synthesis in histological sections of renal tissue. BrdU was dissolved in 20% ethanol and was injected intra-peritoneally 23 hours after administration of mercuric chloride. One hour later the kidneys were quickly perfused with a warm solution of phosphate-buffered saline via an aortic catheter to eliminate red blood cells from the organ and maintain potency of the renal tubules. The capsule was removed from the kidneys which were the bisected longitudinally, and fixed in formalin for 4 hours, and then in 70% ethanol. Tissue sections were prepared and BrdU-labeled nuclei were detected as described above.
In the kidneys of a rats given mercuric chloride, extensive necrosis of tubular cells of the terminal portion (S3) of the proximal nephron was observed, as expected in this well-characterized model system. The extent of necrosis was somewhat variable from rat-to-rat but was always confined to the aglomerular cortex. […]

Where “and” joins values, the source holds several entries; their conditions need not be identical. Identical values can stand only once. Like-named read-outs stand apart in the source and are kept apart here.

AQPYPQGNHEASYG: the EC50 in experiment [1] (+ heparin (1 μg/ml)) is 40 nM; in experiment [1] (+ keratan sulfate (2 μg/ml for 5 minutes prior to peptide, b158; 10 μg/ml)), 67 nM; in experiment [1] (peptide alone, BSC-1 cells, 4 days in culture) it was 126 nM. Moreover, the “stimulation of growth (increase in cell number compared to control at four days)” value in experiment [1] was 25%; in experiment [1] (listed as 14-Ser Peptide), 25-30%; in experiment [1] (listed as 14-Ser peptide) it was 25-30% and 25%. Besides, the “exposure time for half-maximal stimulation” value with BSC-1 cells (14-Ser 0.5 μg/ml) worked out at 1 min. In addition, the “maximal growth stimulation after 2 minutes exposure” value with BSC-1 cells (14-Ser 0.5 μg/ml, count at four days) is listed as 29%. The “exposure time sufficient for maximal growth stimulation (commitment time)” value in the experiment on BSC-1 cells (peptide then washed off, cells counted four days later) was determined as 2 min. In addition, the “BrdU-labeled nuclei adjacent to the zone of tubular cell necrosis” value in experiment [2] is “many more labeled nuclei”.
